Reference: PMC10035389, “Safety, Tolerability, and Pharmacokinetics of TAK-931, a Cell Division Cycle 7 Inhibitor, in Patients with Advanced Solid Tumors: A Phase I First-in-Human Study” (Cancer Research Communications, 2022)

System: patients with advanced solid tumors
Assay: Safety and tolerability (adverse events, NCI CTCAE v4.03), phase I dose-escalation study
Format: in vivo, human
Source text: This was a phase I, open-label, dose-escalation study of single-agent TAK-931. Dose escalation of TAK-931 was cohort based with an adaptive design using Bayesian logistic regression modeling (BLRM) with pharmacokinetic guidance. BLRM also guided MTD estimation from the second dose. Patients were enrolled in one of four dosing schedules (A, B, D, or E; Supplementary Fig. S1) to receive TAK-931. Two additional schedules were planned (C and F) but no patients were enrolled. Schedule A included an initial accelerated escalation phase. TAK-931 was administered once daily for 14 days in 21-day cycles starting at 30 mg, which doubled until a cycle 1 dose-limiting toxicity (DLT) was observed, when 2 patients experienced grade ≥2 treatment-related toxicity, or when maximum geometric mean plasma concentration (Cmax) for the cohort reached or exceeded 800 ng/mL [threshold for off-target adverse effects (hypotension) in animal toxicology studies]; then dose escalation transitioned to modified Fibonacci escalation steps. In schedule B (based on experience with schedule A), patients received TAK-931 once daily or twice daily for 7 days on, 7 days off in a 28-day cycle starting at 60 mg. In schedule D, patients received TAK-931 once daily starting at 20 mg in 21-day cycles; BLRM was not applied but further adjustments were dependent on observed safety, pharmacokinetics, and pharmacodynamics. In schedule E, patients received TAK-931 once daily for 2 days on, 5 days off starting at 100 mg in 21-day cycles. A safety expansion was permitted once MTD had been determined. Prophylactic growth factors were permitted in all schedules to manage severe and/or febrile neutropenia. TAK-931 treatment continued until unacceptable toxicity, disease progression, or patient withdrawal.
DLTs included: cycle 1 grade ≥3 hematologic and non-hematologic events or grade 2 non-hematologic events considered by the investigator to be TAK-931-related, grade 2 ejection fraction decrease, >2 weeks delay in initiating cycle 2 (1 week for schedules D and E), and >50% TAK-931 dose reduction in cycle 1 due to treatment-related adverse events (AEs; see Supplementary Materials and Methods for full DLT criteria). Toxicity was evaluated by NCI Common Terminology Criteria for Adverse Events (version 4.03). Tumor response was measured using the RECIST (version 1.1) ([16]). Serial blood samples for pharmacokinetic analysis were collected during cycle 1 on days 1 and 7 (schedule B), 1 and 8 (schedules A and D), or 1 and 9 (schedule E). Pharmacokinetic parameters were estimated from concentration–time profiles using noncompartmental methods with WinNonlin® Phoenix™ version 8.1 (Certara, Princeton, NJ). pMCM2 was detected semiquantitatively by IHC of histologic sections of formalin-fixed, paraffin-embedded skin and tumor biopsies using anti-pMCM2 (3378-1, Epitomics Inc.; ref. [15]). Quantitative image analysis determined pMCM2 levels as “histologic score nuclei (H-score).” Skin punch biopsies (2–4 mm) were obtained during screening or predose on cycle 1, day 1 and for patients in schedules A, B, and D, postdose on any drug dosing day after 3 consecutive dosing days in cycle 1. A postdose skin biopsy was obtained on day 9 in schedule E. Fresh tumor biopsy pairs were collected predose and postdose on any dosing day after the completion of 3 consecutive dosing days in cycle 1 from patients who received doses considered to have biological effect.
The safety population included patients who received ≥1 dose of TAK-931. The pharmacodynamic-evaluable population comprised patients from the safety population with a baseline and ≥1 additional postbaseline biopsy sample that was suitable for pMCM2 analysis. The pharmacokinetic-evaluable population included patients with sufficient dosing and TAK-931 concentration–time data to estimate pharmacokinetic parameters. […]

[1] = Schedule D (continuous once daily) n = 18
[2] = Schedule E (2 days on, 5 days off) n = 13
[3] = all schedules, N = 80, all grade 1/2

SMILES: Cc1[nH]ncc1-c1cc2nc([C@@H]3CC4CCN3CC4)[nH]c(=O)c2s1 [TAK-931, simurosertib]
- Rash popular, AE any grade [1]: 2 (11) n (%)
- Stomatitis, AE any grade [1]: 0 (0) n (%)
- Thrombocytopenia, AE any grade [1]: 0 (0) n (%)
- Tumor pain, AE any grade [1]: 1 (6) n (%)
- Vomiting, AE any grade [1]: 2 (11) n (%)
- White blood cell count decreased, AE any grade [1]: 7 (39) n (%)
- White blood cell count decreased, grade ≥3 AE [1]: 2 (11) n %
- Abdominal pain, AE any grade [2]: 0 (0) n (%)
- Alopecia, AE any grade [2]: 4 (31) n (%)
- Anemia, AE any grade [2]: 6 (46) n (%)
- Anemia, grade ≥3 AE [2]: 5 (38) n %
- Arthralgia, AE any grade [2]: 1 (8) n (%)
- Blood creatinine increased, AE any grade [2]: 0 (0) n (%)
- Constipation, AE any grade [2]: 1 (8) n (%)
- Cough, AE any grade [2]: 0 (0) n (%)
- Decreased appetite, AE any grade [2]: 5 (38) n (%)
- Decreased appetite, grade ≥3 AE [2]: 0 (0) n %
- Diarrhea, AE any grade [2]: 3 (23) n (%)
- Dry skin, AE any grade [2]: 3 (23) n (%)
- Edema peripheral, AE any grade [2]: 3 (23) n (%)
- Electrocardiogram QT prolonged, AE any grade [2]: 1 (8) n (%)
- Fall, AE any grade [2]: 2 (15) n (%)
- Fatigue, AE any grade [2]: 2 (15) n (%)
- Febrile neutropenia, AE any grade [2]: 1 (8) n (%)
- Febrile neutropenia, grade ≥3 AE [2]: 1 (8) n %
- Gamma-glutamyltransferase increased, AE any grade [2]: 2 (15) n (%)
- Gamma-glutamyltransferase increased, grade ≥3 AE [2]: 0 (0) n %
- Hypoalbuminemia, AE any grade [2]: 0 (0) n (%)
- Hypoalbuminemia, grade ≥3 AE [2]: 0 (0) n %
- Hypophosphatemia, grade ≥3 AE [2]: 0 (0) n %
- Hypotension, AE any grade [2]: 5 (38) n (%)
- Leukopenia, AE any grade [2]: 1 (8) n (%)
- Leukopenia, grade ≥3 AE [2]: 0 (0) n %
- Lymphocyte count decreased, AE any grade [2]: 1 (8) n (%)
- Lymphocyte count decreased, grade ≥3 AE [2]: 1 (8) n %
- Lymphopenia, AE any grade [2]: 0 (0) n (%)
- Malaise, AE any grade [2]: 2 (15) n (%)
- Nasopharyngitis, AE any grade [2]: 0 (0) n (%)
- Nausea, AE any grade [2]: 7 (54) n (%)
- Neutropenia, AE any grade [2]: 8 (62) n (%)
- Neutropenia, grade ≥3 AE [2]: 8 (62) n %
- Orthostatic hypotension, AE any grade [2]: 3 (23) n (%)
- Platelet count decreased, AE any grade [2]: 1 (8) n (%)
- Pruritus, AE any grade [2]: 0 (0) n (%)
- Pyrexia, AE any grade [2]: 2 (15) n (%)
- Rash popular, AE any grade [2]: 0 (0) n (%)
- Stomatitis, AE any grade [2]: 1 (8) n (%)
- Thrombocytopenia, AE any grade [2]: 0 (0) n (%)
- Tumor pain, AE any grade [2]: 3 (23) n (%)
- Vomiting, AE any grade [2]: 7 (54) n (%)
- White blood cell count decreased, AE any grade [2]: 7 (54) n (%)
- White blood cell count decreased, grade ≥3 AE [2]: 4 (31) n %
- Abdominal pain, AE any grade (Total, all schedules N = 80): 5 (6) n (%)
- Alopecia, AE any grade (Total, all schedules N = 80): 26 (33) n (%)
- Anemia, AE any grade (Total, all schedules N = 80): 19 (24) n (%)
- Anemia, grade ≥3 AE (Total, all schedules N = 80): 10 (13) n %
- Arthralgia, AE any grade (Total, all schedules N = 80): 6 (8) n (%)
- Blood creatinine increased, AE any grade (Total, all schedules N = 80): 7 (9) n (%)
- Constipation, AE any grade (Total, all schedules N = 80): 10 (13) n (%)
- Cough, AE any grade (Total, all schedules N = 80): 3 (4) n (%)
- Decreased appetite, AE any grade (Total, all schedules N = 80): 23 (29) n (%)
- Decreased appetite, grade ≥3 AE (Total, all schedules N = 80): 3 (4) n %
- Diarrhea, AE any grade (Total, all schedules N = 80): 15 (19) n (%)
- Dry skin, AE any grade (Total, all schedules N = 80): 6 (8) n (%)
- Edema peripheral, AE any grade (Total, all schedules N = 80): 10 (13) n (%)
- Electrocardiogram QT prolonged, AE any grade (Total, all schedules N = 80): 4 (5) n (%)
- Fall, AE any grade (Total, all schedules N = 80): 4 (5) n (%)
- Fatigue, AE any grade (Total, all schedules N = 80): 12 (15) n (%)
- Febrile neutropenia, AE any grade (Total, all schedules N = 80): 5 (6) n (%)
- Febrile neutropenia, grade ≥3 AE (Total, all schedules N = 80): 5 (6) n %
- Gamma-glutamyltransferase increased, AE any grade (Total, all schedules N = 80): 5 (6) n (%)
- Gamma-glutamyltransferase increased, grade ≥3 AE (Total, all schedules N = 80): 2 (3) n %
- Hypoalbuminemia, AE any grade (Total, all schedules N = 80): 6 (8) n (%)
- Hypoalbuminemia, grade ≥3 AE (Total, all schedules N = 80): 2 (3) n %
- Hypophosphatemia, grade ≥3 AE (Total, all schedules N = 80): 2 (3) n %
- Hypotension, AE any grade (Total, all schedules N = 80): 11 (14) n (%)
- Leukopenia, AE any grade (Total, all schedules N = 80): 19 (24) n (%)
- Leukopenia, grade ≥3 AE (Total, all schedules N = 80): 11 (14) n %
- Lymphocyte count decreased, AE any grade (Total, all schedules N = 80): 4 (5) n (%)
- Lymphocyte count decreased, grade ≥3 AE (Total, all schedules N = 80): 2 (3) n %
- Lymphopenia, AE any grade (Total, all schedules N = 80): 5 (6) n (%)
- Malaise, AE any grade (Total, all schedules N = 80): 11 (14) n (%)
- Nasopharyngitis, AE any grade (Total, all schedules N = 80): 6 (8) n (%)
- Nausea, AE any grade (Total, all schedules N = 80): 48 (60) n (%)
- Neutropenia, AE any grade (Total, all schedules N = 80): 45 (56) n (%)
- Neutropenia, grade ≥3 AE (Total, all schedules N = 80): 37 (46) n %
- Orthostatic hypotension, AE any grade (Total, all schedules N = 80): 4 (5) n (%)
- Platelet count decreased, AE any grade (Total, all schedules N = 80): 6 (8) n (%)
- Pruritus, AE any grade (Total, all schedules N = 80): 4 (5) n (%)
- Pyrexia, AE any grade (Total, all schedules N = 80): 10 (13) n (%)
- Rash popular, AE any grade (Total, all schedules N = 80): 5 (6) n (%)
- Stomatitis, AE any grade (Total, all schedules N = 80): 7 (9) n (%)
- Thrombocytopenia, AE any grade (Total, all schedules N = 80): 5 (6) n (%)
- Tumor pain, AE any grade (Total, all schedules N = 80): 8 (10) n (%)
- Vomiting, AE any grade (Total, all schedules N = 80): 29 (36) n (%)
- White blood cell count decreased, AE any grade (Total, all schedules N = 80): 27 (34) n (%)
- White blood cell count decreased, grade ≥3 AE (Total, all schedules N = 80): 12 (15) n %
- Decrease in CLr (renal effects monitoring) (all schedules): no clinically relevant decrease
- Severity of cardiovascular events (all schedules): grade 1/2
- Alopecia, AE (all schedules, N = 80): 33%
- Anemia, AE (all schedules, N = 80): 24%
- Anemia, grade ≥3 AE (all schedules, N = 80): 13%
- Decreased appetite, AE (all schedules, N = 80): 29%
- Febrile neutropenia, grade ≥3 AE (all schedules, N = 80): 6%
- Leukopenia, AE (all schedules, N = 80): 24%
- Leukopenia, grade ≥3 AE (all schedules, N = 80): 14%
- Nausea, AE (all schedules, N = 80): 60%
- Neutropenia, AE (all schedules, N = 80): 56%
- Neutropenia, grade ≥3 AE (all schedules, N = 80): 46%
- Patients who discontinued treatment (AEs) (all schedules, N = 80): 4 patients
- Patients with AEs resulting in dose delays (all schedules, N = 80): 40%
- Patients with AEs resulting in dose holds (all schedules, N = 80): 45%
- Patients with AEs resulting in dose reductions (all schedules, N = 80): 31%
- Vomiting, AE (all schedules, N = 80): 36%
- White blood cell count decreased, AE (all schedules, N = 80): 34%
- White blood cell count decreased, grade ≥3 AE (all schedules, N = 80): 15%
- Patients reporting grade ≥3 AEs (all schedules, N = 80, 50 patients): 63%
- Patients experiencing AEs (all schedules, N = 80, 79 patients): 99%
- Patients with AEs resulting in TAK-931 dose modification (all schedules, N = 80, Forty-nine patients): 61%
- Patients who discontinued treatment (AEs) (all schedules, N = 80, Four patients): 5%
- Patients with ≥1 serious AE (all schedules, N = 80, Twenty-three patients): 29%
- Electrocardiogram QT prolonged, cardiovascular event [3]: 5%
- Hypotension, cardiovascular event [3]: 14%
- Orthostatic hypotension, cardiovascular event [3]: 5%
- Decreased appetite, serious AE (all schedules, N = 80, n = 3): 4%
- Malignant ascites, serious AE (all schedules, N = 80, n = 3): 4%
- Febrile neutropenia, serious AE (all schedules, N = 80, n = 4): 5%
- Patients who died during the study (all schedules, Two patients, due to disease progression, neither related to TAK-931): 3%
